Measurements from PubChem BioAssay (NCI).
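Method: 48-hour compound exposure of cells in 96-well plates, five concentrations, linear interpolation of endpoints. GI50 = concentration required for 50% inhibition of growth. TGI denotes the concentration required for complete inhibition of growth.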

Assays:
Experiment in all cases: NCI anticancer screen, dose series, 48 h
HL-60(TB) leukemia = system: HL-60(TB) leukemia
SW-620 colon = system: SW-620 colon
SNB-75 CNS = system: SNB-75 CNS
UACC-257 melanoma = system: UACC-257 melanoma
U251 CNS = system: U251 CNS
HCT-116 colon = system: HCT-116 colon
T-47D breast = system: T-47D breast
SK-OV-3 ovarian = system: SK-OV-3 ovarian

SMILES	GI50 (HL-60(TB) leukemia) [µM]	TGI (HL-60(TB) leukemia) [µM]	GI50 (SW-620 colon) [µM]	TGI (SW-620 colon) [µM]	GI50 (SNB-75 CNS) [µM]	TGI (SNB-75 CNS) [µM]	GI50 (UACC-257 melanoma) [µM]	TGI (UACC-257 melanoma) [µM]	GI50 (U251 CNS) [µM]	TGI (U251 CNS) [µM]	GI50 (HCT-116 colon) [µM]	TGI (HCT-116 colon) [µM]	GI50 (T-47D breast) [µM]	TGI (T-47D breast) [µM]	GI50 (SK-OV-3 ovarian) [µM]	TGI (SK-OV-3 ovarian) [µM]
C=CC(=O)N1CCN(c2ncnc3c(F)c(-c4c(O)cccc4F)c(Cl)cc23)CC1	6.76	45.6	14	31.9	7.54	22.6	14.4	30.4	13.2	46.8	9.19	23.1	10.2	42.9	–	–
COc1cc(/C=C2\CC3C4CC=C5CC(N6CCCC6)CC[C@]5(C)C4CC[C@]3(C)C2OC(C)=O)ccc1OCCN1CCCC1 (some centres not stated)	2.05	4.36	–	–	2.51	5.09	1.95	3.53	1.81	3.73	1.54	2.87	16.8	34.5	3.28	8.92
C[C@H]1CCC/C=C/[C@@H]2C[C@H](N)C[C@H]2[C@H](O)/C=C/C(=O)O1	98.4	> 100	> 100	> 100	39.9	> 100	> 100	> 100	> 100	> 100	> 100	> 100	> 100	> 100	> 100	> 100
Cc1c(C(=O)NN)nnn1-c1ccnc2c(C(F)(F)F)cccc12	> 100	> 100	> 100	> 100	37.9	> 100	> 100	> 100	–	–	> 100	> 100	> 100	> 100	> 100	> 100
CNC(=O)c1cc(Oc2ccc(NC(=O)Nc3ccc(Cl)c(OC(F)(F)F)c3)c(F)c2)ccn1	1	6.53	2.13	> 33.2	5.35	13.5	1.19	6.54	2.32	13.7	1.15	8.08	0.814	7.27	4.32	> 33.2
Cn1c(N)nc2c(nc(OCc3ccccc3)n2C2OC(CO)C(O)C2O)c1=O (configuration not stated)	–	> 100	–	> 100	–	> 100	–	> 100	–	> 100	–	> 100	–	> 100	–	> 100
CCCCCCNc1nc(NCCCCCC)c2[nH]c(NCCCCCC)nc2n1	1.58	4.22	3.04	12.3	4.31	20.7	17	32.9	2.18	8.98	1.34	3.46	2.42	17.3	24.8	> 74.1
Cc1ccc([N+](=O)[O-])c2c(NCCCN(C)C)ccnc12	–	> 100	–	> 100	–	> 100	–	> 91.1	–	> 100	–	> 100	–	> 100	–	–
COc1ccc(C2C(C#N)=C(N)OC3=C2CCCc2ccc(F)cc23)cc1OC (configuration not stated)	32	> 100	12.5	30.3	34.7	> 84.6	29.6	> 67.8	17	35.9	11	39.1	46.1	98.3	25.4	57.7
CCCNCc1cc(C)cc2c1nc(N1CCNCC1)n2Cc1cc(C)c(F)c(C)c1	1.76	3.8	1.96	4.34	12.1	26.4	–	–	1.84	3.58	2.19	4.54	1.88	3.62	15.8	29.4
O=P(O)(O)C(O)(Cn1ccnc1)P(=O)(O)O	> 71.2	> 100	> 100	> 100	> 37.4	> 100	> 100	> 100	> 59.1	> 100	> 53.8	> 77.9	> 79	> 100	> 81.1	> 100
NC(N)=N/N=C/c1c(-c2ccccn2)nc2sc(Cl)cn12	11	25.8	5.29	11.8	–	–	7.45	14.8	8.28	15.1	8.36	17.3	8.58	23.3	9.1	17.9
CC(=O)n1c(-c2ccc(Cl)cc2)nc2c(c1=O)C(c1ccc(Cl)cc1)c1sc3c(Cl)cccc3c1O2 (configuration not stated)	0.289	0.853	0.388	1.68	0.454	5.88	0.68	3.9	0.446	1.67	0.301	1.44	0.48	2.78	0.352	1.95
CN(C)c1nc(-c2cccs2)n2nc(-c3ccc(Cl)cc3)cc2n1	> 100	> 100	> 100	> 100	2.26	10.4	–	–	–	–	2.43	> 100	–	–	–	–
O=C1c2ccccc2-c2c1c1ccccc1c(=O)n2CCNCCCNCCn1c2c(c3ccccc3c1=O)C(=O)c1ccccc1-2	–	–	< 0.005	0.58	–	–	1.17	2.91	0.146	0.371	< 0.005	0.262	0.719	2.12	1.21	4.83
C=CCOc1c(Br)cc(Br)cc1Br	32.1	89.3	22.6	89.4	20.2	> 100	57.6	> 100	8.28	> 100	11.4	66.2	31.4	> 100	55.5	> 100
CCN(Cc1c(F)cccc1F)c1ccc(CO)c(Cl)c1	3.1	39.4	0.139	> 90.4	11	49.6	0.0389	0.149	0.195	32.5	0.0291	12.8	0.0516	0.288	1.65	9.91
Cc1ccc(-c2nc(C(Cl)Cl)n3nc(-c4ccccc4)cc3n2)cc1	–	–	0.392	2.35	> 100	> 100	–	–	0.322	1.53	0.258	0.712	0.505	3.53	2.56	> 100

SMILES	GI50 (HL-60(TB) leukemia) [µM]	TGI (HL-60(TB) leukemia) [µM]	GI50 (SW-620 colon) [µM]	TGI (SW-620 colon) [µM]	GI50 (SNB-75 CNS) [µM]	TGI (SNB-75 CNS) [µM]	GI50 (UACC-257 melanoma) [µM]	TGI (UACC-257 melanoma) [µM]	GI50 (U251 CNS) [µM]	TGI (U251 CNS) [µM]	GI50 (HCT-116 colon) [µM]	TGI (HCT-116 colon) [µM]	GI50 (T-47D breast) [µM]	TGI (T-47D breast) [µM]	GI50 (SK-OV-3 ovarian) [µM]	TGI (SK-OV-3 ovarian) [µM]
Nc1ccc(SC23CC4CC(CC(C4)C2)C3)cc1	–	> 100	–	> 100	–	–	–	> 100	–	> 100	–	> 100	–	> 100	–	> 100
CCN(CCO)CCNc1ccc(C)c2sc3cc(Cl)ccc3c(=O)c12	1.56	3.55	1.27	2.77	1.97	5.44	1.97	3.55	1.4	2.79	1.34	2.72	1.91	3.96	1.61	3.09
CCCS(=O)(=O)c1nc(NC2CC2)cc(-c2ccc3c(ccn3C3CC(C)(C)NC(C)(C)C3)c2)n1	1.75	3.73	–	–	1.45	2.86	–	–	–	–	1.68	3.22	–	–	1.86	3.46
CCCCCC(C(O)C#N)C(O)(C(F)(F)F)C(F)(F)F (configuration not stated)	–	> 10	–	> 10	–	> 10	–	> 10	–	> 10	–	> 10	–	> 10	–	> 10
COc1ccc(NC2=C(Br)C(=O)C(C)=C(C)C2=O)cc1	2.34	6.82	2.07	4.54	11	23.5	1.75	3.37	1.93	3.98	1.76	3.37	1.93	4.81	12.3	26.1
Oc1ccc(Cc2ccccc2)c2cccnc12	1.56	6.65	3.39	54.8	14.7	> 100	4.06	> 100	0.999	37.7	1.79	21.5	3.6	> 100	3.43	> 100
CCn1c(-c2nonc2N)nc2ccc(F)cc21	> 25	> 25	> 25	> 25	> 25	> 25	> 25	> 25	> 25	> 25	> 25	> 25	> 25	> 25	> 25	> 25
Cc1ccc(C(=O)CC(Sc2cccc(Cl)c2Cl)c2ccc(Cl)cc2)cc1C (configuration not stated)	30.6	> 100	17.8	36	–	–	20.9	48.6	11.5	25.8	19.4	49.8	27.1	76.9	23.3	59.7
COC(=O)C(Cc1ccccc1)N/C=C\C(=O)c1ccc(Cl)cc1 (configuration not stated)	–	–	31.7	97.2	> 100	> 100	26.5	67.1	22	51.7	16.4	36.9	37	> 100	26.7	92.4
CCOC(=O)[C@@H](C)C[C@H](Cc1ccccc1)NC(=O)c1csc([C@@H](C[C@H](C(C)C)N(C)C(=O)[C@@H](NC(=O)[C@H]2CCCCN2C)C(C)(C)C)OC(C)=O)n1	< 0.00167	< 0.00167	< 0.00167	> 16.7	< 0.00167	12.6	–	–	< 0.00167	> 16.7	< 0.00167	–	–	–	< 0.00167	> 16.7
COc1ccc2c(c1)[C@@]13CCN4CC5=CCO[C@H]6CC(=O)N2[C@H]1[C@H]6[C@H]5C[C@H]43	–	> 100	–	> 100	–	–	–	> 100	–	> 100	–	> 100	–	> 100	–	> 100
Cc1sc(C)c(-c2ccc(CO)o2)c1-c1ccc(CO)o1	52.5	> 100	0.499	> 100	25.4	> 100	–	–	14.5	> 100	0.0695	> 100	–	–	16.5	> 100
COC(=O)c1c(O)ccc2[nH]c(C)c(C#N)c12	–	–	45.4	> 100	87.9	> 100	> 100	> 100	44.8	> 100	22	61.5	44.4	> 100	97.5	> 100
Cc1ccc2/c(=C/c3ccc(N(C)C)cc3)c3cc(-c4ccccc4)[n+](C)n3c2c1	–	–	0.186	1.51	0.144	2.02	0.0307	1.71	< 0.01	–	0.0406	> 100	0.0956	> 100	–	–
COc1ccc(-c2cc(-c3cc(Cl)ccc3Cl)nc3nc(=S)[nH]c(N)c23)cc1	–	–	38.7	> 100	82.7	> 100	–	–	22.1	72.1	15.1	28.4	> 100	> 100	47.2	> 100
COc1ccccc1C(=O)c1ccc2ccccc2c1	–	21.8	–	75.2	–	> 100	–	> 100	–	> 100	–	> 100	–	–	–	–
C=C(C)[C@@H]1CC[C@@]2(C(=O)O)CC[C@]3(C)C(CCC4[C@@]5(C)CCC(OS(=O)(=O)c6ccccc6)C(C)(C)C5CC[C@]43C)C12 (some centres not stated)	–	–	3.89	15.2	11.5	30.5	4.76	39.6	3.62	15.7	2.9	13.1	2	17.1	14	44.4
